Experimental data: patent US9249131B2, “Modulators of ATP-binding cassette transporters” (Vertex Pharmaceuticals Incorporated, priority 2003, dated 2016)

Target: T1, ΔF508-CFTR (Homo sapiens, UniProt P13569, DEL508-508)
T1 construct: expressed in transfected cells; host or cells: NIH3T3 mouse fibroblasts stably expressing ΔF508-CFTR for the optical, whole-cell and single-channel assays; Fisher rat epithelial (FRT) cells for Ussing chamber follow-up
Experiment: Assays for ΔF508-CFTR correction and potentiator properties (membrane potential optical and electrophysiological methods)
Type: cell-based
Conditions: CFTR modulation; for % Activity: % Efficacy; for EC50: tested using the above methods
Procedure, shortened: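 NIH3T3 mouse fibroblasts stably expressing ΔF508-CFTR were used, with membrane potential read by DiSBAC2(3)/CC2-DMPE FRET on VIPR. Correctors: 16 h compound exposure at 37 °C, then activation with forskolin plus genistein in Cl⁻-free medium. Potentiators: cells held 24 h at 27 °C, compound added in Cl⁻-free medium, 2-10 μM forskolin 22 s later (final Cl⁻ 28 mM).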

T1 sequence (P13569 with tags, fused parts or gaps DEL508-508): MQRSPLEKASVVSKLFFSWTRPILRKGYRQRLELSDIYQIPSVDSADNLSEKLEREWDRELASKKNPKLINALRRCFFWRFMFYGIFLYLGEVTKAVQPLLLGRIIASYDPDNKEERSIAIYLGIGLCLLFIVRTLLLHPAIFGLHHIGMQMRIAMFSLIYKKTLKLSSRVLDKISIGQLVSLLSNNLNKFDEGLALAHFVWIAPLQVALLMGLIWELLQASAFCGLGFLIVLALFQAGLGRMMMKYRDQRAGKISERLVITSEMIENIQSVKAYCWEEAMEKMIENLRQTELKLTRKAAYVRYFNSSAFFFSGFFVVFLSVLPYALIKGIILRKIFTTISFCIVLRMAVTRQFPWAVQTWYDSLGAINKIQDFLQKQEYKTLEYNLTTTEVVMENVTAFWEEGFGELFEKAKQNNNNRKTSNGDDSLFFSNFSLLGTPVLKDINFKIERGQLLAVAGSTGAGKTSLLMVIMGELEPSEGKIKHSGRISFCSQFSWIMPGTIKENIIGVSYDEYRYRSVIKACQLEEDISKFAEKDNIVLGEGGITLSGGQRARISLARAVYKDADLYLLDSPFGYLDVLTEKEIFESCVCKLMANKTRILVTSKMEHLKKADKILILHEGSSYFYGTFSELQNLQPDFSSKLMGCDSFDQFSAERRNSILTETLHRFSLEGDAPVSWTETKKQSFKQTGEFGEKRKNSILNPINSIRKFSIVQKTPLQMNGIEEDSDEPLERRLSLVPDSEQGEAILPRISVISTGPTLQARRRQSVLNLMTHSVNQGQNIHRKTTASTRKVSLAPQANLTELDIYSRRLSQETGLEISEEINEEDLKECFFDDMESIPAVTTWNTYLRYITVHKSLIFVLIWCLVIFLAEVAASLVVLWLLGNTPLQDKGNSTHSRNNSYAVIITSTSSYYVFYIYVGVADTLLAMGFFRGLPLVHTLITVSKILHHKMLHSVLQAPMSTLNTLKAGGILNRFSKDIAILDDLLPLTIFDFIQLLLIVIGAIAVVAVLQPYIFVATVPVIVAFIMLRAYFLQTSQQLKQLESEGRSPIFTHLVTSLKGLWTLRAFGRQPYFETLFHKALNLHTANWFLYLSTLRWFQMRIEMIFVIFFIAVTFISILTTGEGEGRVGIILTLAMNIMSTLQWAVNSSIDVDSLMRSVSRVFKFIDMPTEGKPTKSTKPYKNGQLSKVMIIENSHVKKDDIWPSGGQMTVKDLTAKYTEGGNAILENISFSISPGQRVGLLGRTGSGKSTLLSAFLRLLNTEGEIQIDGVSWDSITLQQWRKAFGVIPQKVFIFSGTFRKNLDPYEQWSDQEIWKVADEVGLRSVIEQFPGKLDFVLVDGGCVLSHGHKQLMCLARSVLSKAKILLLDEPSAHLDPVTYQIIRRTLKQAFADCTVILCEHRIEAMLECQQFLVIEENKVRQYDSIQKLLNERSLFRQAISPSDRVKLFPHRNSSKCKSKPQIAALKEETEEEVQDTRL

% Activity | EC50 | Structure (SMILES)
++ (“++” means between 25% to 100%) | < 10 µM | O=C(Nc1nc(-c2ccccc2)c(-c2ccccc2)s1)c1cccc(Cl)c1 [compound 106]
++ (“++” means between 25% to 100%) | 25 to 60 µM | O=C(Nc1ncc(Cc2ccccc2Cl)o1)C1Cc2ccccc21 (stereo not drawn) [compound 188]
++ (“++” means between 25% to 100%) | 10 to 25 µM | O=C(Nc1ncc(Cc2ccc(Cl)cc2)o1)C1Cc2ccccc21 (stereo not drawn) [compound 145]
++ (“++” means between 25% to 100%) | < 10 µM | O=C(Nc1ncc(Cc2cccc(Cl)c2)o1)C(c1ccccc1)C1CCCCC1 (stereo not drawn) [compound 151]
++ (“++” means between 25% to 100%) | 25 to 60 µM | O=C(Nc1ncc(Cc2ccc(Cl)cc2)o1)C(c1ccccc1)c1ccccc1 [compound 143]
++ (“++” means between 25% to 100%) | 10 to 25 µM | O=C(Nc1ncc(Cc2ccccc2Cl)o1)C(c1ccccc1)C1CCCCC1 (stereo not drawn) [compound 186]
++ (“++” means between 25% to 100%) | < 10 µM | N#Cc1ccccc1Cc1cnc(NC(=O)C(c2ccccc2)C2CCCCC2)s1 (stereo not drawn) [compound 256]
+++ (“+++” means >100%) | 10 to 25 µM | O=C(Nc1nc(-c2cccc(Cl)c2)cs1)c1ccccc1 [compound 160]
+++ (“+++” means >100%) | < 10 µM | CC(C)C(C(=O)Nc1ncc(Cc2cccc(Cl)c2)s1)c1ccccc1 (stereo not drawn) [compound 130]
++ (“++” means between 25% to 100%) | 10 to 25 µM | CC(C)CC(=O)Nc1nc(-c2ccccc2)cs1 [compound 86]
++ (“++” means between 25% to 100%) | < 10 µM | O=C(Nc1ncc(Cc2ccccc2Cl)s1)C1CCCC1 [compound 209]
+++ (“+++” means >100%) | < 10 µM | CC(C(=O)Nc1nc(-c2ccccc2)c(-c2ccccc2)s1)c1ccccc1 (stereo not drawn) [compound 172]
++ (“++” means between 25% to 100%) | < 10 µM | CCC(Nc1ccccc1)C(=O)Nc1ncc(Cc2ccccc2Cl)s1 (stereo not drawn) [compound 251]
++ (“++” means between 25% to 100%) | < 10 µM | COC(=O)CC(C(=O)Nc1ncc(Cc2ccccc2Cl)s1)c1ccccc1 (stereo not drawn) [compound 269]
++ (“++” means between 25% to 100%) | 10 to 25 µM | O=C(Nc1ncc(Cc2ccc(Cl)cc2)o1)c1ccccc1 [compound 150]
+++ (“+++” means >100%) | < 10 µM | CC1CCCN1C(C(=O)Nc1ncc(Cc2ccccc2Cl)s1)c1ccccc1 (stereo not drawn) [compound 242]
++ (“++” means between 25% to 100%) | 25 to 60 µM | CCC(C(=O)Nc1ncc(Cc2ccccc2Cl)o1)c1ccccc1 (stereo not drawn) [compound 190]
++ (“++” means between 25% to 100%) | 10 to 25 µM | CC(C)C(C(=O)Nc1ncc(Cc2ccccc2Cl)o1)c1ccccc1 (stereo not drawn) [compound 193]
+++ (“+++” means >100%) | < 10 µM | CC(C(=O)Nc1nc(-c2ccccc2)cs1)N1CCN(S(=O)(=O)c2ccc(Br)cc2)CC1 (stereo not drawn) [compound 199]
++ (“++” means between 25% to 100%) | < 10 µM | O=C(Cc1ccccc1)Nc1nc(-c2cccc3ccccc23)cs1 [compound 46]

% Activity | EC50 | Structure (SMILES)
+++ (“+++” means >100%) | < 10 µM | O=C(Cc1ccccc1)Nc1nc(-c2ccccc2)c(-c2ccccc2)s1 [compound 107]
++ (“++” means between 25% to 100%) | < 10 µM | CC[C@H](C(=O)Nc1ncc(Cc2cccc(Cl)c2)s1)c1ccccc1 [compound 204]
++ (“++” means between 25% to 100%) | < 10 µM | O=C(Nc1ncc(Cc2ccccc2Cl)s1)C(c1ccc(Cl)cc1)c1ccc(Cl)cc1 [compound 95]
++ (“++” means between 25% to 100%) | 10 to 25 µM | O=C(Nc1ncc(Cc2ccccc2Cl)s1)c1ccccc1 [compound 28]
++ (“++” means between 25% to 100%) | 10 to 25 µM | O=C(Nc1ncc(Cc2cccc(Cl)c2)o1)C1Cc2ccccc21 (stereo not drawn) [compound 152]
++ (“++” means between 25% to 100%) | < 10 µM | COc1ccc(-c2ccc(C(=O)Nc3nccs3)cc2)cc1 [compound 13]
++ (“++” means between 25% to 100%) | < 10 µM | COc1ccc(-c2ccc(C(=O)Nc3nc4ccccc4s3)cc2)cc1 [compound 14]
++ (“++” means between 25% to 100%) | < 10 µM | COc1ccccc1Cc1cnc(NC(=O)C(C)c2ccccc2)s1 (stereo not drawn) [compound 135]
++ (“++” means between 25% to 100%) | 25 to 60 µM | CCC(NC)C(=O)Nc1ncc(Cc2ccccc2Cl)s1 (stereo not drawn) [compound 218]
++ (“++” means between 25% to 100%) | < 10 µM | O=C(Nc1ncc(Cc2ccccc2)s1)C(c1ccccc1)C1CCCC1 (stereo not drawn) [compound 101]
++ (“++” means between 25% to 100%) | 25 to 60 µM | CC(C(=O)Nc1ncc(Cc2ccccc2Cl)o1)c1ccccc1 (stereo not drawn) [compound 189]
+++ (“+++” means >100%) | 10 to 25 µM | CCCc1ccc(C(=O)Nc2nc3ccccc3s2)cc1 [compound 11]
++ (“++” means between 25% to 100%) | < 10 µM | CCC(C(=O)Nc1ncc(Cc2ccccc2Cl)s1)c1cccnc1 (stereo not drawn) [compound 255]
++ (“++” means between 25% to 100%) | < 10 µM | COc1ccccc1Cc1cnc(NC(=O)C2c3ccccc3Oc3ccccc32)s1 [compound 140]
++ (“++” means between 25% to 100%) | < 10 µM | O=C(Nc1ncc(Cc2ccc(Cl)cc2)s1)C(c1ccc(Cl)cc1)c1ccc(Cl)cc1 [compound 118]
++ (“++” means between 25% to 100%) | < 10 µM | COc1ncccc1Cc1cnc(NC(=O)C(c2ccccc2)c2ccccc2)s1 [compound 282]
++ (“++” means between 25% to 100%) | < 10 µM | COc1ccccc1Cc1cnc(NC(=O)C(c2ccccc2)C2CCCCC2)s1 (stereo not drawn) [compound 132]
++ (“++” means between 25% to 100%) | < 10 µM | CCCc1nc(NC(=O)C(c2ccccc2)c2ccccc2)sc1C(=O)OCC [compound 287]
++ (“++” means between 25% to 100%) | 25 to 60 µM | CCNC(CC)C(=O)Nc1ncc(Cc2ccccc2Cl)s1 (stereo not drawn) [compound 220]
++ (“++” means between 25% to 100%) | < 10 µM | CCN(CC)C(C(=O)Nc1ncc(Cc2ccccc2Cl)s1)c1ccccc1 (stereo not drawn) [compound 212]

% Activity | EC50 | Structure (SMILES)
+++ (“+++” means >100%) | < 10 µM | O=C(Nc1nc(-c2ccccc2)c(-c2ccccc2)s1)c1c(F)cccc1F [compound 62]
+++ (“+++” means >100%) | < 10 µM | CCC(=O)Nc1nc(-c2ccccc2)c(-c2ccccc2)s1 [compound 50]
++ (“++” means between 25% to 100%) | 10 to 25 µM | CCC(C)C(C(=O)Nc1ncc(Cc2ccccc2)o1)c1ccccc1 (stereo not drawn) [compound 100]
++ (“++” means between 25% to 100%) | < 10 µM | O=C(Nc1ncc(Cc2cc(Cl)ccc2Cl)s1)C(c1ccccc1)c1ccccc1 [compound 57]
++ (“++” means between 25% to 100%) | 10 to 25 µM | O=C(Nc1ncc(Cc2ccccc2Cl)o1)C(c1ccc(Cl)cc1)c1ccc(Cl)cc1 [compound 187]
+++ (“+++” means >100%) | < 10 µM | Cc1ccc(C(=O)Nc2nc(-c3ccc(C)cc3)c(-c3ccccc3)s2)cc1 [compound 39]
++ (“++” means between 25% to 100%) | < 10 µM | O=C(Nc1ncc(Cc2cccc(Cl)c2)o1)C(c1ccccc1)C1CCCC1 (stereo not drawn) [compound 156]
++ (“++” means between 25% to 100%) | 10 to 25 µM | CC(C)(C)C(=O)Nc1nc(-c2ccccc2)cs1 [compound 87]
++ (“++” means between 25% to 100%) | 25 to 60 µM | COc1ccccc1Cc1cnc(NC(=O)CC(C)c2ccccc2)s1 (stereo not drawn) [compound 274]
+++ (“+++” means >100%) | 10 to 25 µM | Cc1cccc(C(=O)Nc2nc(-c3ccccc3)cs2)c1 [compound 88]
++ (“++” means between 25% to 100%) | 10 to 25 µM | O=C(Nc1ncc(Cc2ccccc2)o1)c1ccccc1 [compound 141]
++ (“++” means between 25% to 100%) | < 10 µM | CC(C)C(=O)Nc1nc(-c2ccccc2)c(-c2ccccc2)s1 [compound 109]
+++ (“+++” means >100%) | < 10 µM | COc1ccc(C(=O)Nc2nc(-c3ccccc3)c(-c3ccccc3)s2)cc1 [compound 72]
++ (“++” means between 25% to 100%) | 10 to 25 µM | CC(CC(=O)O)CC(=O)Nc1nc(-c2ccccc2)c(-c2ccccc2)s1 (stereo not drawn) [compound 60]
++ (“++” means between 25% to 100%) | < 10 µM | Cc1cccc2sc(NC(=O)c3ccccc3Cl)nc12 [compound 41]
++ (“++” means between 25% to 100%) | < 10 µM | CCC(C(=O)Nc1ncc(Cc2ccccc2Cl)n1C)c1ccccc1 (stereo not drawn) [compound 278]
+++ (“+++” means >100%) | < 10 µM | Cc1ccc(C(=O)Nc2nc(-c3ccccc3Cl)cs2)cc1 [compound 230]
++ (“++” means between 25% to 100%) | 10 to 25 µM | COc1cccc(-c2csc(NC(=O)c3cccc(Cl)c3)n2)c1 [compound 232]
++ (“++” means between 25% to 100%) | < 10 µM | CCC(C(=O)Nc1nc2ccc(OC)cc2s1)c1ccccc1 (stereo not drawn) [compound 266]
++ (“++” means between 25% to 100%) | 25 to 60 µM | CC(C(=O)Nc1ncc(Cc2ccccc2C#N)s1)c1ccccc1 (stereo not drawn) [compound 257]
